The test system of series [1] is MDR P. aeruginosa clinical isolate No.2. As to the kind of experiment: microbe, parasite or virus in culture. Particulars: Pseudomonas aeruginosa.
Series [2] relates to MDR P. aeruginosa clinical isolate No.1. As to the kind of experiment: microbe, parasite or virus in culture. The settings on record: Pseudomonas aeruginosa.
Series [3] relates to MDR P. aeruginosa clinical isolate No.7. As to the kind of experiment: microbe, parasite or virus in culture. Particulars: Pseudomonas aeruginosa.
For series [4], the system named is MDR P. aeruginosa clinical isolate No.5. Put plainly: microbe, parasite or virus in culture. Particulars: Pseudomonas aeruginosa.
In series [5] the test system is MDR P. aeruginosa clinical isolate No.14. Put plainly: microbe, parasite or virus in culture. Particulars: Pseudomonas aeruginosa.
For series [6], the system named is MDR P. aeruginosa clinical isolate No.6. As to the kind of experiment: microbe, parasite or virus in culture. Particulars: Pseudomonas aeruginosa.
The subject of series [7] is MDR P. aeruginosa clinical isolate No.8. Put plainly: microbe, parasite or virus in culture. The settings on record: Pseudomonas aeruginosa.
Series [8] deals with MDR P. aeruginosa clinical isolate No.12. As to the kind of experiment: microbe, parasite or virus in culture. The settings on record: Pseudomonas aeruginosa.
Series [9] deals with Pseudomonas aeruginosa ATCC 27853. Put plainly: microbe, parasite or virus in culture. Particulars: ATCC27853, 24 h.
The test system of series [10] is MDR P. aeruginosa clinical isolate No.13. Put plainly: microbe, parasite or virus in culture. The settings on record: Pseudomonas aeruginosa.
For series [11], the system named is MDR P. aeruginosa clinical isolate No.9. Put plainly: microbe, parasite or virus in culture. Particulars: Pseudomonas aeruginosa.
Series [12] concerns MDR P. aeruginosa clinical isolate No.4. Put plainly: microbe, parasite or virus in culture. Particulars: Pseudomonas aeruginosa.
For series [13], the system named is MDR P. aeruginosa clinical isolate No.10. As to the kind of experiment: microbe, parasite or virus in culture. The settings on record: Pseudomonas aeruginosa.
Series [14] concerns MDR P. aeruginosa clinical isolate No.11. Put plainly: microbe, parasite or virus in culture. Particulars: Pseudomonas aeruginosa.
For series [15], the system named is MDR P. aeruginosa clinical isolate No.3. Put plainly: microbe, parasite or virus in culture. The settings on record: Pseudomonas aeruginosa.
In series [16] the test system is Staphylococcus epidermidis ATCC 12228. Particulars: S. epidermidis ATCC 12228; MHB, 37 °C, 24 h.
In series [17] the test system is Acinetobacter baumannii MT strain. The settings on record: Acinetobacter baumannii MT strain; MHB, 37 °C, 24 h.
For series [18], the system named is Vibrio cholera O1 Inaba DMST 16261. The settings on record: MHB, 37 °C, 24 h.
The test system of series [19] is human red blood cells (hRBCs). As to the kind of experiment: Hemolytic activity, hemoglobin release. Particulars: 2% hRBC, 1 h, 37 °C. Here is the method:
Hemolytic activity of the peptides was assayed against human red blood cells (hRBCs) by measuring the amount of hemoglobin released after treatment. The hRBCs, freshly collected from a healthy volunteer in polycarbonate tubes containing heparin, were washed three times in sterile phosphate buffered saline (PBS) and centrifuged at 2,000 × g for 5 min or until the supernatant became clear. […] After 1 h of incubation at 37 °C, intact hRBCs were pelleted by centrifugation at 2,000 × g for 10 min. The supernatant was transferred to a new 96-well plate and the release of hemoglobin was monitored by measurement of absorbance at 405 nm using a Multiskan FC microplate reader. The hRBCs in PBS only (ODBlank) and in 0.1% Triton X-100 (ODTriton X-100) were employed as negative (0% hemolysis) and positive (100% hemolysis) controls, respectively. The percentage of hemolysis was calculated according to the following equation: %Hemolysis=(ODSample−ABlank)/(ODTritonX−100−ODBlank)×100

Series [20] relates to Bacillus cereus ATCC 11778. The settings on record: Bacillus cereus ATCC 11778; MHB, 37 °C, 24 h.
Series [21] has as its system Escherichia coli O157:H7 MT strain. Particulars: E. coli O157:H7 MT strain; MHB, 37 °C, 24 h.
Series [22] has as its system L929 mouse fibroblast cells. As to the kind of experiment: Cytotoxicity, MTT viability assay. The settings on record: 250 µg/ml, 24 h, triplicate. (In general: Tetrazolium assays rely on reduction of a dye to a coloured formazan, in cell work by metabolically active cells.)
For another series, the system named is P. aeruginosa ATCC 27853. As to the kind of experiment: Membrane permeability (PI) and depolarization (BOX), flow cytometry. The format is cell-based, Pseudomonas aeruginosa. Particulars: 1 × MIC, 30 min; for permeabilized and depolarized cells (BOX+PI+): 37 °C, triplicate. Here is the method: Their outer and inner membranes provide important protection for Gram-negative bacteria. To assess membrane permeability and depolarization induced by PA-13, the DNA intercalating dyes propidium iodide (PI) and bis-(1,3-dibutylbarbituric acid) trimethine oxonol (BOX) were used as previously described. The fluorescence conferred by these dyes is generally associated with the loss of membrane integrity and potential, respectively.
Briefly, P. aeruginosa ATCC 27853 was cultured to mid-logarithmic phase and harvested by centrifugation at 2,000 × g for 5 min. The bacterial cells were washed thrice with PBS and diluted to 10^7 CFU/ml in 50 ml of PBS. […] Bacterial pellets were harvested and washed with PBS by centrifugation at 10,000 × g for 10 min. […] Untreated bacterial cells (no peptide) served as a negative control, whereas bacterial cells treated with melittin served as a positive control. Data was recorded using a flow cytometer (CytoFlex, Beckman Coulter) at a laser excitation wavelength of 488 nm. Forward scatter (FS), side scatter (SS), green fluorescence (530/30 nm) from BOX and red fluorescence (585/42 nm) emitted by PI were collected using logarithmic scales. 25,000 cells, defined according to their scatter parameters, were counted in each sample. The experiments were performed in triplicate and the data was analyzed using Kaluza software.

The test system of series [23] is Pseudomonas aeruginosa ATCC 27853. The settings on record: P. aeruginosa ATCC 27853; MHB, 10^7 CFU/ml, 37 °C, 24 h, no visible turbidity.
Series [24] concerns Enterococcus faecalis ATCC 29212. The settings on record: Enterococcus faecalis ATCC 29212; MHB, 37 °C, 24 h.
The test system of series [25] is all Gram-positive strains. As to the kind of experiment: Mean MIC and therapeutic index, Gram-positive strains. The format is cell-based. The settings on record: 5 Gram-positive strains of Table 3. Here is the method: (§1) The antimicrobial activity of the peptides was determined against both Gram-positive and -negative bacteria including 14 MDR P. aeruginosa clinical isolates from Bhumibol Adulyadej Hospital (Tables 1 and 3). The minimal inhibitory concentration (MIC) of each peptide was measured according to a modification of the National Committee for Clinical Laboratory Standards (NCCLS) broth microdilution method as previously described. Briefly, bacterial cells in mid-log phase were cultured in Müeller-Hinton broth (MHB) and then diluted to 10^7 CFU/ml. […] Plates were incubated at 37 °C for 24 h, and MICs were defined as the lowest concentration of peptide that prevented visible turbidity. Cultures without peptides and uninoculated MHB were employed as positive and negative controls, respectively. Colony count assays were performed to determine the minimal bactericidal concentrations (MBCs) for determination of time-killing activity. As previously described, a 50 μl aliquot from each non-turbid well identified in the MIC determination experiment was spread on agar plates.
(§2) To further evaluate the global activity of these peptides, the geometric mean (GM) MIC and the therapeutic index (TI) of each were calculated (Table 3). The TI, a widely used parameter to evaluate cell selectivity and specificity of antimicrobial agents, was calculated as the ratio of MHC (the concentration that causes 10% hemolysis) to the geometric mean of MICs[22]. Higher TIs indicated greater cell selectivity and specificity.

The subject of series [26] is all Gram-negative strains. As to the kind of experiment: Mean MIC and therapeutic index, Gram-negative strains. The format is cell-based. The settings on record: 7 Gram-negative strains of Table 3. On the procedure:
as §1, §2

Series [27] concerns Shigella sonnei ATCC 11060. Particulars: MHB, 37 °C, 24 h.
Series [28] has as its system Listeria monocytogenes 10403 s. Particulars: Listeria monocytogenes 10403 s; MHB, 37 °C, 24 h.
Series [29] has as its system Salmonella Typhimurium ATCC 13311. The settings on record: Salmonella Typhimurium ATCC 13311; MHB, 37 °C, 24 h.

In brackets after ≈: the same amount, converted by molar mass. Like-named read-outs stand apart in the source and are kept apart here. Where only a bound is given, the exact number is not on record here.

As to `C[C@@H](O)[C@H]1C(=O)N2C(C(=O)O)=C(SCCN=CN)C[C@H]12` [Imipenem], the MIC in [1] is > 125 µg/mL; in series [2], > 125 µg/mL; in series [3], > 125 µg/mL; in [4] it was 125 µg/mL (≈ 418 µM); in [5], > 125 µg/mL; in series [6], > 125 µg/mL. Further, the MIC was 125 µg/mL (≈ 418 µM) in series [7]; 125 µg/mL (≈ 418 µM) in [8]; ≤ 0.98 µg/mL in series [9]; 62.5 µg/mL (≈ 209 µM) in [10]; > 125 µg/mL in [11]; > 125 µg/mL in [12]. For the same compound, the MIC in [13], in series [14] and in series [15] was > 125 µg/mL throughout.

On to `CC[C@H](C)[C@H](NC(=O)CN)C(=O)NCC(=O)N[C@@H](C)C(=O)N[C@H](C(=O)N[C@@H](CC(C)C)C(=O)N[C@@H](CCCCN)C(=O)N[C@H](C(=O)N[C@@H](CC(C)C)C(=O)N[C@H](C(=O)N[C@H](C(=O)NCC(=O)N[C@@H](CC(C)C)C(=O)N1CCC[C@H]1C(=O)N[C@@H](C)C(=O)N[C@@H](CC(C)C)C(=O)N[C@H](C(=O)N[C@@H](CO)C(=O)N[C@@H](Cc1c[nH]c2ccccc12)C(=O)N[C@H](C(=O)N[C@@H](CCCCN)C(=O)N[C@@H](CCCNC(=N)N)C(=O)N[C@@H](CCCCN)C(=O)N[C@@H](CCCNC(=N)N)C(=O)N[C@@H](CCC(N)=O)C(=O)N[C@@H](CCC(N)=O)C(N)=O)[C@@H](C)CC)[C@@H](C)CC)[C@@H](C)O)[C@@H](C)O)C(C)C)C(C)C` [Melittin, reference compound], for which the MIC was 3.91 µg/mL (≈ 1.37 µM) in series [16]; 7.81 µg/mL (≈ 2.74 µM) in series [17]; 3.91 µg/mL (≈ 1.37 µM) in [18]; 3.91 µg/mL (≈ 1.37 µM) in [20]; 7.81 µg/mL (≈ 2.74 µM) in [21]; 15.63 µg/mL (≈ 5.49 µM) in series [23]. Further, the MIC in series [24] came to 1.95 µg/mL (≈ 0.685 µM); in series [27], 3.91 µg/mL (≈ 1.37 µM); in [28], 3.91 µg/mL (≈ 1.37 µM); in series [29] it was 3.91 µg/mL (≈ 1.37 µM). The “concentration at which hemolysis was complete (100%)” value in series [19] turned out to be 1.95 µg/mL. The “L929 cell survival at the maximum concentration” value in [22] is “less than 1%”. In addition, in the series on P. aeruginosa ATCC 27853, the “cell population BOX+PI-” value is listed as 2.70%. Besides, the “cell population BOX-PI+” value in the series on P. aeruginosa ATCC 27853 is reported as 0.12%. The “cell population BOX-PI-” value in the series with P. aeruginosa ATCC 27853 was 3.14%. Besides, the “permeabilized and depolarized cells (BOX+PI+)” value stood at 94.04% in the series on P. aeruginosa ATCC 27853 and 94.04 ± 3.25% in the series on P. aeruginosa ATCC 27853 (listed as melittin). For the same compound, the “GM (Gr.+ strains): geometric mean of MIC values from all Gram-positive strains” value in series [25] is 3.52 µg/mL. Besides, the “GM (Gr.− strains): geometric mean of MIC values from all Gram-negative strains” value in series [26] was determined as 10.60 µg/mL.

The values above are taken from PMC7272617 (Scientific Reports, 2020).
